Reference: PubChem BioAssay AID1745844 (Carcinogenic Potency Database (CPDB), 2022)
Activity calls are given as the source filed them. How the calls were made is not given here.

Test system: rodent lifetime carcinogenesis bioassay, tumor incidence TD50
Assay: chronic cancer bioassays in animals – CPDB, compiled studies (AID 1745844)

O=S(=O)([O-])[O-].[Cd+2]
carcinogen call (hamster, strain Syrian Golden, females, inhaled, site: lung, lesion: one or several types, types not named, dosed 61 weeks, study length 76 weeks): negative (inactive) | carcinogen call (hamster, strain Syrian Golden, females, inhaled, site: lung, lesion: one or several types, types not named, dosed 64 weeks, study length 77 weeks): negative (inactive) | carcinogen call (hamster, strain Syrian Golden, males, inhaled, site: lung, lesion: one or several types, types not named, dosed 61 weeks, study length 103 weeks): negative (inactive) | carcinogen call (hamster, strain Syrian Golden, males, inhaled, site: lung, lesion: one or several types, types not named, dosed 64 weeks, study length 113 weeks): negative (inactive) | TD50 (mouse, strain NMRI, females, inhaled, site: lung, lesion: adenocarcinoma, dosed 42 weeks, study length 96 weeks): 0.829 mg/kg/day (inactive) | carcinogen call (mouse, strain NMRI, females, inhaled, site: lung, lesion: adenocarcinoma, dosed 69 weeks, study length 94 weeks): negative (inactive) | carcinogen call (mouse, strain NMRI, females, inhaled, site: lung, lesion: adenoma, dosed 42 weeks, study length 96 weeks): negative (inactive) | carcinogen call (mouse, strain NMRI, females, inhaled, site: lung, lesion: adenoma, dosed 69 weeks, study length 94 weeks): negative (inactive) | carcinogen call (mouse, strain NMRI, females, inhaled, site: lung, lesion: several types, types named in the paper, dosed 42 weeks, study length 96 weeks): negative (inactive) | carcinogen call (mouse, strain NMRI, females, inhaled, site: lung, lesion: several types, types named in the paper, dosed 69 weeks, study length 94 weeks): negative (inactive) | TD50 (rat, strain Wistar, females, inhaled, site: lung, lesion: adenocarcinoma, dosed 78 weeks, study length 126 weeks): 0.112 mg/kg/day | TD50 (rat, strain Wistar, females, inhaled, site: lung, lesion: adenosquamous carcinoma, dosed 78 weeks, study length 126 weeks): 0.112 mg/kg/day | TD50 (rat, strain Wistar, females, inhaled, site: lung, lesion: alveolar/bronchiolar adenoma, dosed 78 weeks, study length 126 weeks): 0.18 mg/kg/day | TD50 (rat, strain Wistar, females, inhaled, site: lung, lesion: several types, types named in the paper, dosed 78 weeks, study length 126 weeks): 0.0174 mg/kg/day | TD50 (rat, strain Wistar, females, inhaled, site: lung, lesion: squamous-cell tumor, dosed 78 weeks, study length 126 weeks): 0.381 mg/kg/day | TD50 (rat, strain Wistar, males, inhaled, site: lung, lesion: adenocarcinoma, dosed 60 weeks, study length 134 weeks): 0.0537 mg/kg/day | TD50 (rat, strain Wistar, males, inhaled, site: lung, lesion: adenosquamous carcinoma, dosed 60 weeks, study length 134 weeks): 0.219 mg/kg/day | TD50 (rat, strain Wistar, males, inhaled, site: lung, lesion: alveolar/bronchiolar adenoma, dosed 60 weeks, study length 134 weeks): 0.219 mg/kg/day | TD50 (rat, strain Wistar, males, inhaled, site: lung, lesion: several types, types named in the paper, dosed 60 weeks, study length 134 weeks): 0.0289 mg/kg/day

Clc1ccc2c(c1)Oc1ccc(Cl)cc1O2
carcinogen call (mouse, strain B6C3F1, females, in feed, site: any site (literature study), lesion: several types, types named in the paper, dosed 90 weeks, study length 91 weeks): negative (inactive) | TD50 (mouse, strain B6C3F1, males, in feed, site: all sites, lesion: hemangioma + hemangiosarcoma, dosed 90 weeks, study length 92 weeks): 2750 mg/kg/day | TD50 (mouse, strain B6C3F1, males, in feed, site: all sites, lesion: leukemia + lymphoma, dosed 90 weeks, study length 92 weeks): 1920 mg/kg/day | TD50 (mouse, strain B6C3F1, males, in feed, site: any site (literature study), lesion: several types, types named in the paper, dosed 90 weeks, study length 92 weeks): 2910 mg/kg/day | TD50 (mouse, strain B6C3F1, males, in feed, site: liver, lesion: hepatocellular adenoma + hepatocellular carcinoma + neoplastic nodule, dosed 90 weeks, study length 92 weeks): 2120 mg/kg/day | TD50 (mouse, strain B6C3F1, males, in feed, site: liver, lesion: hepatocellular adenoma + hepatocellular carcinoma, dosed 90 weeks, study length 92 weeks): 2120 mg/kg/day | carcinogen call (rat, strain Osborne-Mendel, females, in feed, site: any site (literature study), lesion: several types, types named in the paper, dosed 110 weeks, study length 110 weeks): negative (inactive) | carcinogen call (rat, strain Osborne-Mendel, males, in feed, site: any site (literature study), lesion: several types, types named in the paper, dosed 110 weeks, study length 110 weeks): negative (inactive) | TD50 (rat, strain Osborne-Mendel, males, in feed, site: liver, lesion: hepatocellular adenoma + hepatocellular carcinoma + neoplastic nodule, dosed 110 weeks, study length 110 weeks): 12900 mg/kg/day
